The text below walks through data of PMC5826917, “A small molecule inhibitor of Nicotinamide N-methyltransferase for the treatment of metabolic disorders” (Scientific Reports, 2018).

As a reminder, the IC50 is the concentration that gives 50% inhibition. Low values mean greater potency in that assay, high ones weaker potency in that assay. Broadly, the inhibition is the change of the read-out against control, counted positive when it falls. Low readings indicate a weak effect, high ones a strong effect.

Data set [1] has as its system mice on a high-fat diet. On the set-up: method as in PMID 29155147. Particulars: treatment period of 12 days; cited from earlier work.
Data set [2] deals with db/db mice. Kind of data set: Chronic efficacy study in db/db mice. Particulars: db/db mice. On the procedure: Samples for MNA were analyzed employing a fit-for-purpose LC-MS/MS method. PE-Sciex API-4000 triple quadrupole (PerkinElmerSciex Instruments, Boston, MA) mass spectrometer was employed for this analysis. Samples (5 µL) were injected onto Kinetex HILIC (50 × 4.6 mm, 2.6 µm; Phenomenex, Torrance, CA, USA) column connected to Shimadzu VP (Shimadzu, Japan) LC system. The gradient mobile phase mixture of 0.2% formic acid and acetonitrile was delivered at a flow rate of 0.45 ml min-1 into the mass spectrometer electrospray ionization (ESI) chamber. Quantitation was achieved by MS/MS detection in positive ion mode for MNA and internal standard (d4–MNA). Detection of the ions was performed in the multiple reaction monitoring (MRM) mode, monitoring the transition of the m/z 137 precursor ion to the m/z 92 product ion for MNA and m/z 141 precursor ion to the m/z 84 product ion for d4-MNA (internal standard).
A simple protein precipitation extraction method was followed for extraction of N-methylnicotinamide from plasma and various tissue homogenate samples. The tissue samples were homogenized with 1:3 proportions of phosphate buffer saline (PBS) and this homogenate was used for N-Methylnicotinamide determinations. To an aliquot of ~50 μL of plasma/ liver homogenate/ adipose tissue homogenate samples ~300 µl of acetonitrile containing IS (d4-MNA) solution was added, followed by vortex for ~3 minutes and centrifuged for 10 minutes at 14,000 rpm. The supernatant was separated and transferred to pre-labeled HPLC vials and analyzed by LC-MS/MS system.
Samples for methylated JBSNF-000088 were analyzed employing a fit-for-purpose LC-MS/MS method. PE-Sciex API-5500 triple quadrupole (PerkinElmerSciex Instruments, Boston, MA) mass spectrometer was employed for this analysis. Samples (2 µL) were injected onto Atlantis dC18 (50 × 4.6 mm, 3 µm; Waters, Milford, MA, USA) column connected to Shimadzu VP (Shimadzu, Japan) LC system. The gradient mobile phase mixture of 0.2% formic acid and acetonitrile was delivered at a flow rate of 0.9 mL min-1 into the mass spectrometer electrospray ionization (ESI) chamber. Quantitation was achieved by MS/MS detection in positive ion mode for methylated JBSNF-000088 and internal standard (Tolbutamide). Detection of the ions was performed in the multiple reaction monitoring (MRM) mode, monitoring the transition of the m/z 168 precursor ion to the m/z 128.8, product ion for MNA and m/z 271 precursor ion to the m/z 91 product ion for tolbutamide (internal standard).
Male C57BL6/N (Vivo Bio Tech Ltd, India), ob/ob (B6.V-Lepob/OlaHsd) and its lean control (Envigo laboratories Inc, USA) and db/db (BKS.Cg- + Leprdb/ + Leprdb/OlaHsd) and its lean control (Envigo laboratories Inc, USA) were housed in individually ventilated cages (n = 5/cage) under standard laboratory conditions. The study room environment was maintained at a temperature of 21–24 °C and, relative humidity at 40–70%. The animal rooms were maintained under 12 h light and dark cycle. Animals were provided with ad libitum access to water and food (except where noted otherwise, e.g. during fasting prior for glucose tolerance tests, fasting prior to terminal sacrifice). Animals were acclimatized for 1 week before initiation of studies. For Diet induced obesity (DIO) mice study, C57BL6/N mice were maintained on rodents chow diet (Teklad; Harlan) or HFD (60% Kcal; Research diet) for 14 weeks before study initiation and throughout the study period. ob/ob and db/db mice and their lean controls were maintained on rodents chow diet (Teklad; Harlan). All the experiments were approved by Institutional Animal Ethics Committee (IAEC) of Jubilant Biosys Ltd, India.
Lean control + Vehicle and HFD + Vehicle Control groups (G1 and G2) mice were administered with vehicle.

For data set [3], the target named is T1, NNMT (Homo sapiens, UniProt P40261).
T1 sequence (P40261 1-264): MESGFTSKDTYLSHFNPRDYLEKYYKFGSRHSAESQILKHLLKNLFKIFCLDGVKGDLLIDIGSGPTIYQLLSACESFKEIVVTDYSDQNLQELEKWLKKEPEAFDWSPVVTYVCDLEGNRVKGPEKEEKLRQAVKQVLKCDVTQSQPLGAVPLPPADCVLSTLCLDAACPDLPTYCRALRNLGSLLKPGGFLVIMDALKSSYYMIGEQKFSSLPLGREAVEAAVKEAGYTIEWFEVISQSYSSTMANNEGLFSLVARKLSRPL
Kind of data set: NNMT inhibition by the N-methylated product. In kind it is biochemical.

For data set [4], the system named is db/db mice. On the set-up: method as in PMID 12217892, PMID 25256010. Particulars: two weeks of treatment at 100 µg/kg bid; cited from earlier work.

Bounds are passed on as bounds.

Consider `C[n+]1cccc2c(N)cccc21` [5-Amino-1-methylquinoline], for which, in data set [1], the body weight result is “causes weight loss at preserved food intake”.

For `COc1ccc(C(N)=O)c[n+]1C` [N-methylated product of JBSNF-000088, -carbamoyl-2-methoxy-1-methylpyridin-1-ium trifluoromethanesulfonate], the “detection of methylated compound after oral administration of JBSNF-000088” value in data set [2] was “could be detected in plasma and adipose tissue”. Besides, the IC50 in data set [3] was above 30 µM. In data set [3] (at 30 µM), this molecule gave an inhibition at 30 µM of 20%.

With liraglutide, in data set [4], the “effect on body weight” value is “no effect on body weight” and the “influence on glucose homeostasis” value was “moderate influence on glucose homeostasis”.
